Test results: publication PMC5218480 (PLoS ONE, 2017)

System: MV-4-11 cells
Assay: Gene expression microarray analysis (Affymetrix PrimeView) and GSEA
Format: cell-based, human
Parameters: RFU PODN (11730768_x_at) / Fold change /veh PODN (11730768_x_at) / RFU LINC00158 (11744669_a_at) / Fold change /veh LINC00158 (11744669_a_at) / RFU DUSP10 (11751237_a_at) / Fold change /veh DUSP10 (11751237_a_at) / RFU ID3 (11757404_x_at) / Fold change /veh ID3 (11757404_x_at) / RFU PLEKHG5 (11737974_s_at) / Fold change /veh PLEKHG5 (11737974_s_at) / RFU LRRC4B (11730491_at) / Fold change /veh LRRC4B (11730491_at) / RFU GIMAP4 (11747438_a_at) / Fold change /veh GIMAP4 (11747438_a_at) / RFU KRT8 (11758183_x_at) / Fold change /veh KRT8 (11758183_x_at) / RFU CNN1 (11734310_a_at) / Fold change /veh CNN1 (11734310_a_at) / RFU VPS37D (11726825_at) / Fold change /veh VPS37D (11726825_at) / RFU C10orf10 (11716522_x_at) / Fold change /veh C10orf10 (11716522_x_at) / RFU KIR2DL2 /// KIR2DL4 /// KIR2DL5A /// KIR2DL5B /// KIR2DS1 /// KIR2DS2 /// KIR2DS3 /// KIR2DS4 /// KIR3DL3 /// KIR3DL3 /// KIR3DS1 (11738374_at) / Fold change /veh KIR2DL2 /// KIR2DL4 /// KIR2DL5A /// KIR2DL5B /// KIR2DS1 /// KIR2DS2 /// KIR2DS3 /// KIR2DS4 /// KIR3DL3 /// KIR3DL3 /// KIR3DS1 (11738374_at) / RFU C1QL1 (11718748_at) / Fold change /veh C1QL1 (11718748_at) / RFU TMPRSS4 (11747572_a_at) / Fold change /veh TMPRSS4 (11747572_a_at) / RFU HAMP (11756126_x_at) / Fold change /veh HAMP (11756126_x_at) / RFU RNFT2 (11725882_a_at) / Fold change /veh RNFT2 (11725882_a_at) / RFU NR4A2 (11747474_a_at) / Fold change /veh NR4A2 (11747474_a_at) / RFU ABCC12 (11746883_a_at) / Fold change /veh ABCC12 (11746883_a_at) / RFU TMEM136 (11760407_x_at) / Fold change /veh TMEM136 (11760407_x_at) / RFU CLDN22 /// WWC2 (11732394_at) / Fold change /veh CLDN22 /// WWC2 (11732394_at) / RFU HLA-DPB1 (11760878_x_at) / Fold change /veh HLA-DPB1 (11760878_x_at) / RFU SPINT1 (11716480_a_at) / Fold change /veh SPINT1 (11716480_a_at) / RFU GAP43 (11754022_s_at) / Fold change /veh GAP43 (11754022_s_at) / RFU A4GNT (11735810_at) / Fold change /veh A4GNT (11735810_at) / RFU PRB3 (11715151_x_at) / Fold change /veh PRB3 (11715151_x_at) / RFU TUBB4B (11761932_at) / Fold change /veh TUBB4B (11761932_at) / RFU CAPN14 (11732068_a_at) / Fold change /veh CAPN14 (11732068_a_at) / RFU TMCC2 (11721928_a_at) / Fold change /veh TMCC2 (11721928_a_at) / RFU IRGQ (11745062_a_at) / Fold change /veh IRGQ (11745062_a_at) / RFU FAM174B (11720279_a_at) / Fold change /veh FAM174B (11720279_a_at) / RFU TMPRSS4 (11748680_a_at) / Fold change /veh TMPRSS4 (11748680_a_at) / RFU FAM212B (11763350_a_at) / Fold change /veh FAM212B (11763350_a_at) / RFU PLEKHG5 (11743358_a_at) / Fold change /veh PLEKHG5 (11743358_a_at) / RFU ZSCAN30 (11745921_a_at) / Fold change /veh ZSCAN30 (11745921_a_at) / RFU CMKLR1 (11741424_a_at) / Fold change /veh CMKLR1 (11741424_a_at) / RFU LOC101060620 /// MAPK8IP1 (11723275_at) / Fold change /veh LOC101060620 /// MAPK8IP1 (11723275_at) / RFU SPTSSB (11747773_x_at) / Fold change /veh SPTSSB (11747773_x_at) / RFU PRSS12 (11739890_at) / Fold change /veh PRSS12 (11739890_at) / RFU BIN1 (11741810_x_at) / Fold change /veh BIN1 (11741810_x_at) / RFU WNT11 (11732464_a_at) / Fold change /veh WNT11 (11732464_a_at) / RFU C10orf10 (11716521_a_at) / Fold change /veh C10orf10 (11716521_a_at) / RFU C5orf56 (11738089_at) / Fold change /veh C5orf56 (11738089_at) / RFU CYB561 (11721691_x_at) / Fold change /veh CYB561 (11721691_x_at) / RFU ANKRD19P (11752326_a_at) / Fold change /veh ANKRD19P (11752326_a_at) / RFU OR2T12 /// OR2T33 /// OR2T8 (11738714_s_at) / Fold change /veh OR2T12 /// OR2T33 /// OR2T8 (11738714_s_at) / RFU VCAN (11748164_a_at) / Fold change /veh VCAN (11748164_a_at) / RFU JSRP1 (11732532_at) / Fold change /veh JSRP1 (11732532_at) / RFU KRTAP10-11 (11738290_x_at) / Fold change /veh KRTAP10-11 (11738290_x_at) / RFU MYO3A (11730013_a_at) / Fold change /veh MYO3A (11730013_a_at) / RFU EBF3 (11725865_a_at) / Fold change /veh EBF3 (11725865_a_at) / RFU CAMK2N1 (11719241_x_at) / Fold change /veh CAMK2N1 (11719241_x_at) / RFU C5orf56 (11738088_a_at) / Fold change /veh C5orf56 (11738088_a_at) / RFU OLFML3 (11715873_a_at) / Fold change /veh OLFML3 (11715873_a_at) / RFU LOC100653217 /// NTM (11731650_a_at) / Fold change /veh LOC100653217 /// NTM (11731650_a_at) / RFU MAPK11 (11762145_a_at) / Fold change /veh MAPK11 (11762145_a_at) / RFU FIZ1 (11724087_x_at) / Fold change /veh FIZ1 (11724087_x_at) / RFU OASL (11726364_x_at) / Fold change /veh OASL (11726364_x_at) / RFU SOX15 (11748057_x_at) / Fold change /veh SOX15 (11748057_x_at) / RFU CD79A (11719716_a_at) / Fold change /veh CD79A (11719716_a_at) / RFU HIST1H1D (11736915_at) / Fold change /veh HIST1H1D (11736915_at) / RFU CASKIN2 (11723855_a_at) / Fold change /veh CASKIN2 (11723855_a_at) / RFU LOC730098 (11760151_x_at) / Fold change /veh LOC730098 (11760151_x_at) / RFU OR4N2 (11742367_at) / Fold change /veh OR4N2 (11742367_at) / RFU PRRT2 (11749266_a_at) / Fold change /veh PRRT2 (11749266_a_at) / RFU SNX32 (11753110_a_at) / Fold change /veh SNX32 (11753110_a_at) / RFU CDHR5 (11726645_a_at) / Fold change /veh CDHR5 (11726645_a_at) / RFU RCAN1 (11760418_a_at) / Fold change /veh RCAN1 (11760418_a_at) / RFU FAM167A (11723789_a_at) / Fold change /veh FAM167A (11723789_a_at) / RFU FAM26E (11764081_at) / Fold change /veh FAM26E (11764081_at) / RFU ISYNA1 (11749810_s_at) / Fold change /veh ISYNA1 (11749810_s_at) / RFU ACY1 (11761880_at) / Fold change /veh ACY1 (11761880_at) / RFU 11764098_at / Fold change /veh 11764098_at / RFU SAMD14 (11745864_x_at) / Fold change /veh SAMD14 (11745864_x_at) / RFU NPB (11741838_a_at) / Fold change /veh NPB (11741838_a_at) / RFU TMPRSS6 (11731388_a_at) / Fold change /veh TMPRSS6 (11731388_a_at) / RFU KRTAP10-2 (11738614_at) / Fold change /veh KRTAP10-2 (11738614_at) / RFU ARHGAP8 /// PRR5-ARHGAP8 (11727945_x_at) / Fold change /veh ARHGAP8 /// PRR5-ARHGAP8 (11727945_x_at) / RFU KRTAP5-7 /// NADSYN1 (11734609_at) / Fold change /veh KRTAP5-7 /// NADSYN1 (11734609_at) / RFU RASL12 (11751679_a_at) / Fold change /veh RASL12 (11751679_a_at) / RFU CDKN2B (11736163_a_at) / Fold change /veh CDKN2B (11736163_a_at) / RFU PRF1 (11729649_at) / Fold change /veh PRF1 (11729649_at) / RFU, ZNF638 /// ZNF638-IT1 / Fold change vs veh, ZNF638 /// ZNF638-IT1 / RFU, PANK3 / Fold change vs veh, PANK3 / RFU, SH3YL1 / Fold change vs veh, SH3YL1 / RFU, ZEB2 / Fold change vs veh, ZEB2 / RFU, NRIP1 / Fold change vs veh, NRIP1 / RFU, PTTG1IP / Fold change vs veh, PTTG1IP / RFU, CAPN2 / Fold change vs veh, CAPN2 / RFU, MED14 / Fold change vs veh, MED14 / RFU, SNORA58 / Fold change vs veh, SNORA58 / RFU, C1orf63 / Fold change vs veh, C1orf63 / RFU, LRRFIP1 / Fold change vs veh, LRRFIP1 / RFU, NDUFAF7 / Fold change vs veh, NDUFAF7 / RFU, SLC12A2 / Fold change vs veh, SLC12A2 / RFU, IBTK / Fold change vs veh, IBTK / RFU, ESF1 / Fold change vs veh, ESF1 / Fold change vs veh, TMEM50B / RFU, TAOK1 / Fold change vs veh, TAOK1 / RFU, ACBD3 / Fold change vs veh, ACBD3 / RFU, TMA16 / Fold change vs veh, TMA16 / RFU, RWDD3 / Fold change vs veh, RWDD3 / RFU, BCAT1 / Fold change vs veh, BCAT1 / RFU, EDEM3 / Fold change vs veh, EDEM3 / RFU, TMEM33 / Fold change vs veh, TMEM33 / RFU, WDR75 / Fold change vs veh, WDR75 / RFU, AHCTF1 / Fold change vs veh, AHCTF1 / RFU, TFRC / Fold change vs veh, TFRC / RFU, ZDHHC17 / Fold change vs veh, ZDHHC17 / RFU, NOM1 / Fold change vs veh, NOM1 / RFU, ARL8B / Fold change vs veh, ARL8B / RFU, ZBTB11 / Fold change vs veh, ZBTB11 / RFU, TAMM41 / Fold change vs veh, TAMM41 / RFU, KIAA1704 /// LOC100996395 / Fold change vs veh, KIAA1704 /// LOC100996395 / RFU, ING1 / Fold change vs veh, ING1 / RFU, TRMT61B / Fold change vs veh, TRMT61B / RFU, FUBP3 / Fold change vs veh, FUBP3 / RFU, TP53 / Fold change vs veh, TP53 / RFU, TNKS2 / Fold change vs veh, TNKS2 / RFU, ZFP14 / Fold change vs veh, ZFP14 / RFU, ACTR2 / Fold change vs veh, ACTR2 / RFU, PPP3R1 / Fold change vs veh, PPP3R1 / RFU, PIK3R1 / Fold change vs veh, PIK3R1 / RFU, HNRNPA1 / Fold change vs veh, HNRNPA1 / RFU, RNF170 / Fold change vs veh, RNF170 / RFU, ZNF28 / Fold change vs veh, ZNF28 / RFU, RNGTT / Fold change vs veh, RNGTT / RFU, OGT / Fold change vs veh, OGT / RFU, BRD1 / Fold change vs veh, BRD1 / RFU, MARS / Fold change vs veh, MARS / RFU, ZNF655 / Fold change vs veh, ZNF655 / RFU, FAHD1 / Fold change vs veh, FAHD1 / RFU, BDP1 / Fold change vs veh, BDP1 / RFU, LRRCC1 / Fold change vs veh, LRRCC1 / RFU, ARID1A / Fold change vs veh, ARID1A / RFU, ZNF146 / Fold change vs veh, ZNF146 / RFU, ZNF330 / Fold change vs veh, ZNF330 / RFU, GPN3 / Fold change vs veh, GPN3 / RFU, C9orf123 / Fold change vs veh, C9orf123 / RFU, N4BP2L2 / Fold change vs veh, N4BP2L2 / RFU, ARFIP1 / Fold change vs veh, ARFIP1 / RFU, FAM179B / Fold change vs veh, FAM179B / RFU, BCL10 / Fold change vs veh, BCL10 / RFU, UHRF1BP1L / Fold change vs veh, UHRF1BP1L / RFU, BET1 / Fold change vs veh, BET1 / RFU, CNOT2 / Fold change vs veh, CNOT2 / RFU, ZNF268 / Fold change vs veh, ZNF268 / Fold change vs veh, ZNF507 / RFU, DGCR2 / Fold change vs veh, DGCR2 / RFU, WDSUB1 / Fold change vs veh, WDSUB1 / Fold change vs veh, HSP90B1 /// MIR3652 / RFU, ADSS / Fold change vs veh, ADSS / RFU, GK / Fold change vs veh, GK / RFU, ZNF148 / Fold change vs veh, ZNF148 / RFU, TAF9 / Fold change vs veh, TAF9 / RFU, SLC1A5 / Fold change vs veh, SLC1A5 / RFU, SLMO2 / Fold change vs veh, SLMO2 / RFU, ABCC4 / Fold change vs veh, ABCC4 / RFU, LOC101060439 /// RAP1B / Fold change vs veh, LOC101060439 /// RAP1B / RFU, RFX7 / Fold change vs veh, RFX7 / RFU, GTPBP10 / Fold change vs veh, GTPBP10 / RFU, CNEP1R1 / Fold change vs veh, CNEP1R1 / RFU, BIVM-ERCC5 /// ERCC5 / Fold change vs veh, BIVM-ERCC5 /// ERCC5 / RFU, ILF3 / Fold change vs veh, ILF3 / RFU 11762660_at / Fold change /veh 11762660_at / RFU VCAN (11757783_s_at) / Fold change /veh VCAN (11757783_s_at) / RFU DDX43 (11728927_at) / Fold change /veh DDX43 (11728927_at) / RFU KRT8 (11758188_x_at) / Fold change /veh KRT8 (11758188_x_at) / RFU NKD1 (11759106_at) / Fold change /veh NKD1 (11759106_at) / RFU SRD5A1 (11742802_a_at) / Fold change /veh SRD5A1 (11742802_a_at) / RFU TPSAB1 /// TPSB2 (11721975_s_at) / Fold change /veh TPSAB1 /// TPSB2 (11721975_s_at) / RFU GSTM3 (11746129_a_at) / Fold change /veh GSTM3 (11746129_a_at) / RFU IL23R (11737362_x_at) / Fold change /veh IL23R (11737362_x_at) / RFU TMEM51 (11727254_a_at) / Fold change /veh TMEM51 (11727254_a_at) / RFU PIWIL2 (11732686_x_at) / Fold change /veh PIWIL2 (11732686_x_at) / RFU ORM1 (11744905_x_at) / Fold change /veh ORM1 (11744905_x_at) / RFU CCDC152 (11743942_at) / Fold change /veh CCDC152 (11743942_at) / RFU ECM1 (11717891_a_at) / Fold change /veh ECM1 (11717891_a_at) / RFU IL23R (11748794_a_at) / Fold change /veh IL23R (11748794_a_at) / RFU TNFAIP8L3 (11732012_x_at) / Fold change /veh TNFAIP8L3 (11732012_x_at) / RFU MBOAT4 (11741988_at) / Fold change /veh MBOAT4 (11741988_at) / RFU 11764193_at / Fold change /veh 11764193_at / RFU TMEM53 (11763286_at) / Fold change /veh TMEM53 (11763286_at) / RFU MAGEB2 (11727129_at) / Fold change /veh MAGEB2 (11727129_at) / RFU TMEM200A (11744735_a_at) / Fold change /veh TMEM200A (11744735_a_at) / RFU CCDC152 (11751479_a_at) / Fold change /veh CCDC152 (11751479_a_at) / RFU FAM211A (11726209_a_at) / Fold change /veh FAM211A (11726209_a_at) / RFU RGS16 (11746705_a_at) / Fold change /veh RGS16 (11746705_a_at) / RFU VCAN (11755009_s_at) / Fold change /veh VCAN (11755009_s_at) / RFU RHOB (11743442_s_at) / Fold change /veh RHOB (11743442_s_at) / RFU RGS16 (11720943_a_at) / Fold change /veh RGS16 (11720943_a_at) / RFU RGS16 (11720944_at) / Fold change /veh RGS16 (11720944_at) / RFU, VPS4B / Fold change vs veh, VPS4B / RFU, CREB1 / Fold change vs veh, CREB1 / RFU, DNAJC13 / Fold change vs veh, DNAJC13 / RFU, GNAQ / Fold change vs veh, GNAQ / RFU, CDK5R1 / Fold change vs veh, CDK5R1 / RFU, ZRANB3 / Fold change vs veh, ZRANB3 / RFU, CUL4A / Fold change vs veh, CUL4A / RFU, CCNY / Fold change vs veh, CCNY / RFU, UFL1 / Fold change vs veh, UFL1 / RFU, COG3 / Fold change vs veh, COG3 / RFU, DIAPH2 / Fold change vs veh, DIAPH2 / RFU, SKA2 / Fold change vs veh, SKA2 / RFU, AFF3 / Fold change vs veh, AFF3 / RFU, LMF1 / Fold change vs veh, LMF1 / RFU, IPO11 / Fold change vs veh, IPO11 / RFU, DFFB / Fold change vs veh, DFFB / RFU, FOXP1 / Fold change vs veh, FOXP1 / RFU, CARD8 / Fold change vs veh, CARD8 / RFU, STRN3 / Fold change vs veh, STRN3 / RFU, ADK / Fold change vs veh, ADK / RFU, RASSF2 / Fold change vs veh, RASSF2 / RFU, WIPF1 / Fold change vs veh, WIPF1 / RFU, LARP1B / Fold change vs veh, LARP1B / RFU, RASA1 / Fold change vs veh, RASA1 / RFU, RB1 / Fold change vs veh, RB1 / RFU, PPFIA1 / Fold change vs veh, PPFIA1 / RFU, MAT2A / Fold change vs veh, MAT2A / RFU, CCT5 / Fold change vs veh, CCT5 / RFU, WDR92 / Fold change vs veh, WDR92 / RFU, CUX1 / Fold change vs veh, CUX1 / RFU, TTC7A / Fold change vs veh, TTC7A / RFU, TMEM135 / Fold change vs veh, TMEM135 / RFU, DEPTOR / Fold change vs veh, DEPTOR / RFU, CPM / Fold change vs veh, CPM / RFU, DNAJB6 / Fold change vs veh, DNAJB6 / RFU, CACNA2D3 / Fold change vs veh, CACNA2D3 / RFU, DTX4 / Fold change vs veh, DTX4 / RFU, TFCP2 / Fold change vs veh, TFCP2 / RFU, GMCL1 /// GMCL1P1 / Fold change vs veh, GMCL1 /// GMCL1P1 / RFU, AEBP2 / Fold change vs veh, AEBP2 / RFU, SNHG1 /// SNORD22 /// SNORD25 /// SNORD26 /// SNORD27 /// SNORD28 /// SNORD29 /// SNORD31 / Fold change vs veh, SNHG1 /// SNORD22 /// SNORD25 /// SNORD26 /// SNORD27 /// SNORD28 /// SNORD29 /// SNORD31 / Fold change (Aza/veh), C12orf56 (ProbeSet 11735607_a_at) / Fold change (ACY-1035/veh), C12orf56 (ProbeSet 11735607_a_at) / Fold change (Aza/veh), FGFR1OP (ProbeSet 11751329_s_at) / Fold change (ACY-1035/veh), FGFR1OP (ProbeSet 11751329_s_at) / Fold change (Aza/veh), VPS36 (ProbeSet 11739960_a_at) / Fold change (ACY-1035/veh), VPS36 (ProbeSet 11739960_a_at) / RFU SYPL1 (11715823_x_at) / Fold change /veh SYPL1 (11715823_x_at) / RFU IGFBP7 (11715501_s_at) / Fold change /veh IGFBP7 (11715501_s_at) / RFU REEP3 (11722064_at) / Fold change /veh REEP3 (11722064_at) / RFU IGLL1 (11728026_x_at) / Fold change /veh IGLL1 (11728026_x_at): dose or concentration left out as unconfirmed
Details: ProbeSet 11738335_x_at; LIST B

## Nc1ncn([C@@H]2O[C@H](CO)[C@@H](O)[C@H]2O)c(=O)n1 [azacitidine]
  Fold change vs veh, TP53: 0.89
